The record followed here is paper PMC9849758, “Chemically diverse activity-based probes with unexpected inhibitory mechanisms targeting trypsin-like serine proteases” (Frontiers in Chemistry, 2023).

What all share (type): biochemical
Test [1] deals with T1, uPA (recombinant urokinase plasminogen activator) (Homo sapiens, UniProt P00749).
T1 construct: purchased HYPHEN BioMed
Description: IC50 determination, spectrophotometric protease assay. In a few lines:
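Compounds were first tested at 10, 1 and .1 μM, and only those reducing activity by at least 50% at 10 μM went on to full IC50 curves. Cleavage of substrates, dosed at their Km, was monitored 30 min at 37°C.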

For test [2], the target named is T2, Thrombin (Homo sapiens, UniProt P00734).
T2 construct: purchased R&D
Description: Kinetic progress curves (kapp, K1, KI*, mechanism). The following applies: for Thrombin kapp: apparent second-order rate constant from progress curves; for Thrombin kapp / Ki: mean ± SD; for Thrombin mechanism of inhibition: defined by the progress curves: slow-binding (Rev.) or irreversible (Irrev.). As to the method:
Because the compounds described in this paper were previously described as irreversible inhibitors, the IC50 value is inversely correlated with the second-order rate constant of inactivation. For a simple pseudo-first-order inactivation process, the activity after incubation with inhibitor (vi) varies with the inhibitor concentration (i), as described in the following equation: vi=v0·e^−kit where v0 is the activity in the absence of an inhibitor, k is the second-order rate constant of inactivation, and t is the time. The inactivation rate constant was determined from the time course of inhibition.
Kinetic assays were performed in the following manner. The inhibitor was mixed with the substrate, and the buffer solution with the enzyme was added at the time zero. The progress curves show the release of pNA or AMC as a function of time. Initially, no inhibitor is bound to the enzyme, and the tangent to the progress curve (dA/dt) is proportional to the free enzyme concentration. The free enzyme concentration decreases over time due to inhibitor binding kinetics, as described above. Progress curves were recorded in pseudo-first-order conditions ([I]0>>[E]0) and with less than 10% conversion of the substrate during the entire time course. In these conditions, dA/dt decreases exponentially with time. The progress curves were fitted with the integrated rate equation with GraFit7 to yield a value for kobs, a pseudo-first-order rate constant. At=Ao+vs∙t+vi−vs∙1−e^−kobs∙t/kobs where At is the absorbance at time t, A0 is the absorbance at time zero, vi is the initial rate and vs is the velocity at the steady-state.
The apparent second-order rate constant (kapp) was calculated from the slope of the linear part of the plot of kobs vs. the inhibitor concentration ([I]0). In the case of competition between the inhibitor and the substrate, kapp is smaller than the “real” second-order rate constant k discussed above because a certain fraction of the enzyme is present as an enzyme-substrate complex. kapp depends on the substrate concentration used in the experiment, as described by [Lambeir et al. (1996)].
The apparent equilibrium constants were obtained from the following equations, vi/vo=1/1+I/K1; vS/vo=1/1+I/KI* where vi is the initial rate, vs is the steady-state velocity and vo is the uninhibited initial rate.

Test [3] has as its target T2, Thrombin. Description: Jump dilution, determination of inhibition type. Conditions: inhibitor at 10 times IC50, 15 min, diluted 10-fold or 100-fold; Rev./Irrev.

Like-named read-outs stand apart in the source and are kept apart here.

The term IC50 denotes the point on the concentration scale where inhibition reaches its midpoint. As for `C[C@@H]1NC(=O)N[C@@H]1CCCCCC(=O)NCCOCCOCCOCCn1cc(CCCOC(=O)NC(CCCNC(=N)N)P(=O)(Oc2ccccc2)Oc2ccccc2)nn1` (stereo partly drawn) [45b], in test [1] (read-out: uPA IC50, desthiobiotin probes, 15 min preincubation at 37°C, mean ± SD), the 50% inhibitory concentration (IC50) is over 10000 nM. In addition, in test [2], the Thrombin kapp worked out at 19 ± 2 M⁻¹ s⁻¹. The “Thrombin mechanism of inhibition” value in test [2] is on record as “Rev”. In addition, the Ki in test [2] (read-out: Thrombin K1, apparent equilibrium constant of the first step of slow-binding) is 9970 ± 1000 nM; in test [2] (read-out: Thrombin KI*, apparent equilibrium constant of the overall process), 1140 ± 110 nM. Also, the “Thrombin jump dilution result” value in test [3] is given as “Rev”.
Turning to `C#CCCCOC(=O)NC(Cc1ccc(NC(=N)N)cc1)P(=O)(Oc1ccc(NC(C)=O)cc1)Oc1ccc(NC(C)=O)cc1` (stereo not drawn) [35b], in test [1], the IC50 was found to be 5 ± 1 nM. In test [2] (Thrombin K1, apparent equilibrium constant of the first step of slow-binding), the Ki was 32700 ± 4000 nM. Further, the Ki in test [2] (Thrombin KI*, apparent equilibrium constant of the overall process) amounted to 630 ± 40 nM. In test [2], the Thrombin kapp is 128 ± 5 M⁻¹ s⁻¹ and the “Thrombin mechanism of inhibition” value was “Rev”. Further, the “Thrombin jump dilution result” value in test [3] was “Rev”.
